Patent publication US20060183801A1, “Method of preventing or treating breast, prostate and/or cervical cancer with n, n-dimethylglycine” (FoodScience Corporation, priority 2002, published 2006)

What was measured:
[1] = tested on: T47D breast cancer cell line; assay: Co-culture proliferation assay: DMG treated Jurkat E6-1 with T47D breast cancer cells; type: cell-based, human; details: Jurkat E6-1 treated with DMG 24 hours prior to culture (FIG. 18)
Procedure: (§1) A proliferation assay was designed to determine the ability of DMG treated cytokine producing cells to inhibit growth of melanoma cell lines, breast cancer cell lines, a prostate cancer cell line, and cervical cancer cell lines. The cytokine bioassays utilizing cell proliferation assays were performed to assess modulation of inflammatory cytokine production by DMG. Cytokine bioassays are well known in the art. (Thorpe R: Developments in Biological Standardization 1999, 97:61-71 and Mire-Sluis AR: Journal of Immunological Methods 1995, 187 (2):191-199)
(§2) The cell lines and murine B16 as indicator cells were used to observe the modulating effects of DMG. The optimum cell number per well for each cell line was determined after titration assay. Stimulated and unstimulated cytokine producing cell lines (Jurkat e6-1, EL-4, MG-63 and U-937) were treated with DMG for 24 hours prior to culture with cancer cell lines. […]
(§3) A proliferation assay was designed to determine the ability of DMG treated cytokine producing cells to inhibit growth of human breast cancer cell lines MCF-7, BT-20 and T47D, human prostrate cancer PC-3 cell line, human cervical cancer Caski and SiHa cell lines and melanoma cell lines. […] The optimum cell number/well for each cell line was determined after a titration assay. […]

[2] = tested on: melanoma cells; assay: Co-culture proliferation assay: DMG treated stimulated Jurkat E6-1 with melanoma cells; type: cell-based; details: PMA/Ionomycin stimulated Jurkat E6-1 in co-culture
Procedure: as §1, §2, §3

[3] = tested on: melanoma cells; assay: Co-culture proliferation assay: DMG treated stimulated MG-63 with melanoma cells; type: cell-based; details: DMG treated stimulated MG-63 (produces IFN-β) in co-culture
Procedure: as §1, §2, §3

[4] = tested on: MCF-7 breast cancer cells; assay: Co-culture proliferation assay: DMG treated Jurkat E6-1 with MCF-7 breast cancer cells; type: cell-based, human; details: Jurkat E6-1 treated with DMG 24 hours prior to culture (FIG. 17)
Procedure: as §1, §2, §3

[5] = tested on: IL-1 secretion in U-937 cell line; assay: Cytokine bioassay: IL-1 secretion by U-937 cells (A375.S2 indicator cells); type: cell-based; details: detected by decreased proliferation of A375.S2 (FIG. 3)
Procedure: (§4) Cytokine bioassays utilizing cell proliferation assays were performed to assess modulation of inflammatory cytokine production by DMG (House-Development in biological Standardization 1999 (97) 13-19). Supernatants from cytokine producing cell lines (untreated control and DMG treated), were added to responder cell lines specific for that cytokine. Proliferation or inhibition of these responder/indicator cells signal the extent of cytokine secreted by the producer cell lines. The optimum cell number/well for each cell line was determined after a titration assay. All suspension producer cell lines such at THP-1, Jurkat E6-1, EL-4 and U-937 were plated on 48 well plates in a concentration of 5×10^6 cells/well, where as adherent producer cells such as LS174T were plated at a concentration of 5×10^5 cells/well. Suspension responder cell lines (CTLL-2 and 7TD-1) were used at a concentration of 1×10^6 cells/well in a 96 well plate, whereas the adherent responder cell lines (L-929 and A375.S2) were plated at a concentration of 3×10^4 cells/well and 4×10^4 cells/well respectively. THP-1 cells, which secrete Tumor Necrosis Factor-alpha (TNF-α), when stimulated with lipopolysaccharide (LPS), were treated with increasing concentrations of DMG for a period of 24 hours at 37° C. in a humidified 5% CO2 incubator. […] Samples are read at 4 hours using a BIO-RAD benchmark microplate reader at 490 nm. […]

[6] = tested on: TNF-α secretion in THP-1 cell line; assay: Cytokine bioassay: TNF-α secretion by LPS-stimulated THP-1 cells (L-929 indicator cells); type: cell-based; details: 100 mM DMG, 24 h, measured by L-929 cells (FIG. 2)
Procedure: as §4

[7] = tested on: IL-2 secretion in EL-4 cell line; assay: Cytokine bioassay: IL-2 secretion by EL-4 cells (CTLL-2 responder cells); type: cell-based, mouse
Procedure: as §4

[8] = tested on: T47D breast cancer cell line; assay: Co-culture proliferation assay: DMG treated stimulated PBMC with T47D cells; type: cell-based, human; details: DMG treated stimulated PBMC in co-culture (FIG. 20)
Procedure: (§5) Heparinized peripheral blood from healthy control volunteers was collected and layered onto room temperature (RT) polysucrose sodium diatriazoate (Histopaque 1077, Sigma Chemical Co.) in 15-ml conical tubes. These were centrifuged at 400×g for 30 minutes. Mononuclear cells were collected and washed in 10-ml phosphate buffered saline (PBS). Following a 10 min centrifugation and 250×g, the PBS were decanted and the wash step repeated. Cells were counted in a hemocytometer and adjusted to 2×10^6 cells/ml. These cells were later used in cytokine bioassays, Co-culture and in flow cytometry.
(§6) A proliferation assay was designed to determine the ability of DMG treated cytokine producing cells to inhibit growth of human breast cancer cell lines MCF-7, BT-20 and T47D, human prostrate cancer PC-3 cell line, human cervical cancer Caski and SiHa cell lines and melanoma cell lines. Three melanoma cell lines, human A375.S2 and Hs 294T, and murine B16 as indicator cells were used to observe the modulating effects of DMG. The optimum cell number/well for each cell line was determined after a titration assay. Stimulated and unstimulated cytokine producing cell lines (Jurkat E6-1, EL-4, MG-63 and U-937) were treated with DMG for 24 hr prior to culture with melanoma cells. Similarly, PBMC were also treated with DMG and cultured with melanoma cells. […]

[9] = tested on: A375.S2 melanoma cells; assay: Co-culture proliferation assay: DMG treated PBMC with A375.S2 melanoma cells; type: cell-based, human
Procedure: as §5, §6

[10] = tested on: IL-2 secretion in peripheral blood mononuclear cells; assay: Cytokine bioassay: IL-2 secretion by stimulated PBMC (HT-2 responder cells); type: cell-based; details: 100 mM DMG
Procedure: (§7) Heparinized peripheral blood from healthy control volunteers was collected and layered onto room temperature (RT) polysucrose sodium diatriazoate (Histopaque 1077, Sigma Chemical Co.) in 15-ml conical tubes. These were centrifuged at 400×g for 30 minutes. Mononuclear cells were collected and washed in 10-ml phosphate buffered saline (PBS). Following a 10 min centrifugation and 250×g, the PBS were decanted and the wash step repeated. Cells were counted in a hemocytometer and adjusted to 2×10^6 cells/ml. These cells were later used in cytokine bioassays, Co-culture and in flow cytometry. Modulation of inflammatory cytokine production in Peripheral Blood Mononuclear Cells (PBMC) by DMG, was determined by the use of cytokine bioassays. Supernatants of DMG treated and untreated PBMC which produce cytokines (producers) on stimulation with mitogens (PMA and/or lonomycin), were added to responder cell lines specific for the respective cytokine. Proliferation or inhibition of these indicator cells signal the extent of cytokine secretion by the producer cell lines. The optimum cell number/well for each cell line was determined after a titration assay. PBMC were plated on 48 well plates in a concentration of 5×10^6 cells/well. […] Samples are read at 4 hours using a BIO-RAD benchmark microplate reader at 490 nm. […]

[11] = tested on: Caski human cervical carcinoma cells; assay: Co-culture proliferation assay: DMG treated Jurkat E6-1 with Caski cervical cells; type: cell-based; details: Jurkat E6-1 treated with DMG 24 hours prior to culture (FIG. 22-23)
Procedure: as §1, §2, §3

[12] = tested on: prostate adenocarcinoma cell line PC-3; assay: Co-culture proliferation assay: DMG treated stimulated PBMC with PC-3 prostate cells; type: cell-based, human; details: DMG treated stimulated PBMC in co-culture (FIG. 26)
Procedure: as §5, §6

[13] = tested on: IL-1 secretion in peripheral blood mononuclear cells; assay: Cytokine bioassay: IL-1 secretion by stimulated PBMC (A375.S2 responder cells); type: cell-based; details: 100 mM DMG
Procedure: as §7

[14] = tested on: MCF-7 breast cancer cell line; assay: Co-culture proliferation assay: DMG treated stimulated PBMC with MCF-7 cells; type: cell-based, human; details: DMG treated stimulated PBMC in co-culture (FIG. 19)
Procedure: as §5, §6

[15] = tested on: SiHa human cervical carcinoma cells; assay: Co-culture proliferation assay: DMG treated Jurkat E6-1 with SiHa cervical cells; type: cell-based; details: Jurkat E6-1 treated with DMG 24 hours prior to culture (FIG. 24-25)
Procedure: as §1, §2, §3

[16] = tested on: A375.S2 melanoma cells; assay: Co-culture proliferation assay: DMG treated U-937 with A375.S2 melanoma cells; type: cell-based, human; details: DMG treated U-937 in co-culture
Procedure: as §1, §2, §3

[17] = tested on: IL-2 secretion in Jurkat E6-1 cell line; assay: Cytokine bioassay: IL-2 secretion by Jurkat E6-1 cells (CTLL-2 responder cells); type: cell-based, human
Procedure: as §4

[18] = tested on: TNF alpha secretion in peripheral blood mononuclear cells; assay: Cytokine bioassay: TNF-α secretion by stimulated PBMC (L-929 indicator cells); type: cell-based; details: 100 mM DMG, PBMC stimulated with PMA and Ionomycin; L-929 indicator cells (FIG. 7)
Procedure: as §7

[19] = tested on: Hs 294T melanoma cells; assay: Co-culture proliferation assay: DMG treated PBMC with Hs 294T melanoma cells; type: cell-based; details: Homo sapiens; PBMC treated with 100 mM DMG, Hs 294T co-culture (FIG. 14); read-out: inhibitory effect over controls (melanoma inhibition by PBMC)
Procedure: as §5, §6

[20] = tested on: IL-6 secretion in LS 174T cell line; assay: Cytokine bioassay: IL-6 secretion by LS 174T cells (7TD1 responder cells); type: cell-based; details: 100 mM DMG, LS 174T (FIG. 6)
Procedure: as §4

`CN(C)CC(=O)O` [DMG, N,N-dimethylglycine] was tested, and the “inhibition of T47D cells” value [1] was “typical dose dependent effect”, the “increased inhibition of melanoma cells over baseline stimulated control” value [2] was 8% and the melanoma inhibition [3] was “increased level of melanoma inhibition”. The “inhibition of MCF-7 cells” value [4] was “dose dependent effect”, the “increase of IL-1 secretion” value ([5]; 10 mM DMG) was 4.5% and the “increase of IL-1 secretion” value ([5]; 100 mM DMG) was 6.5%. For the same molecule, the “increase of TNF-α levels over baseline control levels” value [6] was 7%, the “increase of IL-2 secretion” value ([7]; 10 mM DMG, EL-4 (FIG. 5)) was 2.5% and the “increase of IL-2 levels (increase in proliferation of CTLL-2)” value ([7]; 100 mM DMG, EL-4 supernatant (FIG. 5)) was 6%. The “inhibition of T47D cell line” value [8] was “dose response inhibition”, the “proliferation decrease in melanoma cell growth over stimulated baseline control” value ([9]; PBMC treated with 100 mM DMG, A375.S2 co-culture) was 17% and the “A375.S2 proliferation, dose dependence” value ([9]; PBMC treated with increasing concentrations of DMG) was “Significant dose dependent reductions”. For the same molecule, the “enhancement of IL-2 expression levels” value [10] was 10%, the “inhibition of Caski cell line” value [11] was “dose response inhibition” and the “inhibition of PC-3 cell line” value [12] was “dose response inhibition”. For the same molecule, the “enhancement of IL-1 expression levels” value [13] was 8%, the “inhibition of MCF-7 cell line” value [14] was “dose response inhibition” and the “inhibition of SiHa cell line” value [15] was “dose response inhibition”. For the same molecule, the “decrease in the proliferation of A375.S2 cells” value [16] was 30%, the “increase of IL-2 secretion” value ([17]; 10 mM DMG, Jurkat E6-1 (FIG. 4)) was 3% and the “increase of IL-2 levels (increase in proliferation of CTLL-2)” value ([17]; 100 mM DMG, Jurkat E6-1 supernatant (FIG. 4)) was 10%. For the same molecule, the “increase of TNF-α over stimulated baseline controls” value [18] was 9%, the inhibition at 100000 µM [19] was 13% and the “increase of IL-6 production levels” value [20] was 7%.
